Experimental data: the supplement of paper PMC10307832

Legend:
Test in all cases: relative viability (nuclei count vs DMSO), 5 days (fraction); higher = more cells survive
Dinaciclib + Bortezomib = compound: CCc1cnn2c(NCc3ccc[n+]([O-])c3)cc(N3CCCC[C@H]3CCO)nc12 [Dinaciclib] + CC(C)C[C@H](NC(=O)[C@H](Cc1ccccc1)NC(=O)c1cnccn1)B(O)O [Bortezomib] (partner 0.002 µM)
Method in brief: (§1)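 Lung cancer cell lines in 1536-well plates were dosed by pin tool the day after seeding, either with one drug alone or with a fixed anchor-drug dose plus five library-drug doses (not always all listed) in √10 steps. After 5 days, cells were fixed and their nuclei stained in one step (final 0.05% Triton X-100, 1% formaldehyde, 1 ug/ml Hoechst), then counted on 4× images. Relative viability is the nuclei count in treated wells divided by that in vehicle wells. Values are medians of duplicate plates.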

Dinaciclib + Navitoclax = compound: CCc1cnn2c(NCc3ccc[n+]([O-])c3)cc(N3CCCC[C@H]3CCO)nc12 [Dinaciclib] + CC1(C)CCC(c2ccc(Cl)cc2)=C(CN2CCN(c3ccc(C(=O)NS(=O)(=O)c4ccc(N[C@H](CCN5CCOCC5)CSc5ccccc5)c(S(=O)(=O)C(F)(F)F)c4)cc3)CC2)C1 [Navitoclax] (partner 0.5 µM)
Method in brief: as §1

Dinaciclib + OSI-027 = compound: CCc1cnn2c(NCc3ccc[n+]([O-])c3)cc(N3CCCC[C@H]3CCO)nc12 [Dinaciclib] + COc1cccc2cc(-c3nc([C@H]4CC[C@H](C(=O)O)CC4)n4ncnc(N)c34)[nH]c12 [OSI-027] (partner 0.5 µM)
Method in brief: as §1

Dinaciclib + Lapatinib = compound: CCc1cnn2c(NCc3ccc[n+]([O-])c3)cc(N3CCCC[C@H]3CCO)nc12 [Dinaciclib] + CS(=O)(=O)CCNCc1ccc(-c2ccc3ncnc(Nc4ccc(OCc5cccc(F)c5)c(Cl)c4)c3c2)o1 [Lapatinib] (partner 2 µM)
Method in brief: as §1

Dinaciclib + Pictilisib = compound: CCc1cnn2c(NCc3ccc[n+]([O-])c3)cc(N3CCCC[C@H]3CCO)nc12 [Dinaciclib] + CS(=O)(=O)N1CCN(Cc2cc3nc(-c4cccc5[nH]ncc45)nc(N4CCOCC4)c3s2)CC1 [Pictilisib] (partner 1 µM)
Method in brief: as §1

Cell Line	relative viability (Dinaciclib + Bortezomib; first compound 0.009487 µM)	relative viability (Dinaciclib + Bortezomib; first compound 0.03 µM)	relative viability (Dinaciclib + Bortezomib; first compound 0.09487 µM)	relative viability (Dinaciclib + Bortezomib; first compound 0.3 µM)	relative viability (Dinaciclib + Navitoclax; first compound 0.009487 µM)	relative viability (Dinaciclib + Navitoclax; first compound 0.03 µM)	relative viability (Dinaciclib + Navitoclax; first compound 0.09487 µM)	relative viability (Dinaciclib + Navitoclax; first compound 0.3 µM)	relative viability (Dinaciclib + OSI-027; first compound 0.009487 µM)	relative viability (Dinaciclib + OSI-027; first compound 0.03 µM)	relative viability (Dinaciclib + OSI-027; first compound 0.09487 µM)	relative viability (Dinaciclib + OSI-027; first compound 0.3 µM)	relative viability (Dinaciclib + Lapatinib; first compound 0.009487 µM)	relative viability (Dinaciclib + Lapatinib; first compound 0.03 µM)	relative viability (Dinaciclib + Lapatinib; first compound 0.09487 µM)	relative viability (Dinaciclib + Lapatinib; first compound 0.3 µM)	relative viability (Dinaciclib + Pictilisib; first compound 0.009487 µM)	relative viability (Dinaciclib + Pictilisib; first compound 0.03 µM)	relative viability (Dinaciclib + Pictilisib; first compound 0.09487 µM)	relative viability (Dinaciclib + Pictilisib; first compound 0.3 µM)
NCI-H1915	0.81	0.23	0.112	0.105	0.759	0.267	0.058	0.0578	0.525	0.169	0.156	0.138	0.715	0.134	0.102	0.111	0.658	0.158	0.121	0.102
PC-14	0.807	0.109	0.0534	0.0475	0.78	0.0911	0.0667	0.0708	0.66	0.0841	0.0393	0.0423	0.305	0.221	0.106	0.0778	0.436	0.145	0.0318	0.0249
SK-LU-1	1.09	0.17	0.188	0.193	0.746	0.0883	0.0998	0.11	0.425	0.116	0.145	0.112	0.717	0.178	0.129	0.13	0.57	0.167	0.155	0.152
NCI-H1437	0.376	0.205	0.0732	0.0751	0.972	0.108	0.106	0.0962	1	0.506	0.132	0.132	0.637	0.115	0.0859	0.0933	0.378	0.0843	0.0843	0.0936
NCI-H1734	0.644	0.148	0.121	0.116	0.714	0.122	0.07	0.0846	0.471	0.13	0.11	0.116	0.72	0.158	0.134	0.143	0.396	0.188	0.124	0.128
HCC-15	0.628	0.106	0.0945	0.0993	0.587	0.244	0.0855	0.0945	0.596	0.113	0.0869	0.107	0.63	0.104	0.0985	0.0923	0.637	0.117	0.0949	0.11
HCC-366	0.779	0.0262	0.0219	0.0175	1.01	0.11	0.0149	0.0168	0.924	0.0747	0.0323	0.0369	0.557	0.0225	0.0184	0.0226	0.196	0.0396	0.0372	0.044
NCI-H2347	1.23	0.226	0.239	0.215	0.779	0.167	0.143	0.143	0.437	0.204	0.144	0.151	0.959	0.637	0.214	0.259	0.455	0.292	0.327	0.179
LXF-289	1.04	0.193	0.0851	0.0696	0.921	0.189	0.0659	0.0645	0.948	0.4	0.0693	0.0617	0.926	0.167	0.106	0.0884	0.843	0.0778	0.0596	0.0483
BEN	0.817	0.497	0.159	0.247	0.102	0.0524	0.0833	0.0414	0.289	0.264	0.191	0.198	0.731	0.343	0.166	0.186	0.621	0.388	0.173	0.191
NCI-H2023	1	0.066	0.0634	0.0575	0.929	0.0702	0.0635	0.0619	0.395	0.0919	0.052	0.067	0.817	0.0669	0.0655	0.0585	0.26	0.0718	0.0607	0.0559
NCI-H1355	1.16	1.1	0.223	0.152	0.943	0.159	0.123	0.0999	0.435	0.212	0.159	0.151	0.979	0.681	0.142	0.138	0.476	0.146	0.0972	0.133
COR-L 105	0.61	0.192	0.219	0.212	0.496	0.213	0.214	0.218	0.51	0.232	0.224	0.234	0.327	0.292	0.283	0.299	0.306	0.23	0.224	0.25
NCI-H2228	0.934	0.0992	0.119	0.102	0.882	0.174	0.0319	0.0438	0.522	0.167	0.0767	0.124	0.764	0.112	0.0806	0.11	0.484	0.0919	0.0936	0.1
NCI-H838	0.231	0.104	0.0725	0.127	0.901	0.226	0.13	0.118	0.436	0.219	0.0977	0.0933	0.239	0.106	0.0848	0.109	0.28	0.117	0.111	0.101
